Earlier results on one compound are cited in patent US8329872B2, “Drug monitoring assay” (Novartis AG, priority 2007, dated 2012).

This data set addresses classical and novel protein kinase C (PKC) isoforms.

Take `CN1CCN(c2nc(C3=C(c4c[nH]c5ccccc45)C(=O)NC3=O)c3ccccc3n2)CC1` [AEB071]: the ki values result is recorded as “in the nM range”.
